Assay results from publication PMC5824344 (ACS Chemical Biology, 2017).
“Also recorded” adds a separate entry of the source.

How the values were obtained:
[1] = tested on: DENV (serotype 2, strain 16681) in Huh7.5 cells; assay: DENV Huh7.5 antiviral assay (infectious titer by plaque assay); assay type: cell-based, dengue virus; details: MOI 0.1, 48 h, titration of 4 or 50 µm of 3
Description: Supplemental Figure 3: Antiviral activity of 4 in human hepatoma Huh7.5 cell line.
(A) Huh7.5 cells were infected with DENV (serotype 2, strain 16681, multiplicity of infection = 0.1) and treated with a titration of ToP-DNJ 4 or 50 µm of tocopherol 3 for 48 h. Infectious virus titer was measured by plaque assay on LLC-MK2 cells. Counts were normalized to 100% for untreated samples.
DENV eﬀect at the concentrations tested. (B) Huh7.5 cells were infected with HCV (JFH-1, multiplicity of infection = 2) and treated with a titration of ToP-DNJ 4 or 50 µm tocopherol 3 for 96 h. Infectious virus titer was measured by TCID50 assay on […]
tested. In both panels, each data point represent the mean of triplicates, with error bars showing standard error of the mean (GraphPad Prism). […]
each well was scored as either positive (≥ 5 stained cells) or negative. TCID50 values were calculated according to the method of Reed and Muench.8 […]
The infectious DENV titres in supernatants collected were evaluated by plaque assay as described previously.9 Brieﬂy, LLC-MK2 cells were seeded in conﬂuent monolayers in a 12-well plate. Four 10-fold dilutions of each supernatant to be analyzed were prepared in minimum essential media (MEM, Gibco), supplemented with 100 µg mL−1 streptomycin, 100 U mL−1 penicillin and 10% (v/v) FCS. […]
After 1 d, plaques were observed and counted from the underside of the plate by eye. […]

[2] = Pharmacokinetics and biodistribution study in mice (IV and PO); assay type: in vivo, BALB/c mice
Description: Supplemental Figure 4: Mouse biodistribution of orally-administered 4. Mice were treated with a single dose of 4 by oral gavage (PO, 10 mg/kg). The mice were sacriﬁced at 30 min, 4 h, and 24 h after 4 administration, and the indicated tissues homogenized and analyzed for 4 by HPLC. While serum levels are much lower than […]
and kidney at 0.5 hours. At 4 and 24 h, as in the IV cohort, 4 remains at a higher concentration in the liver than in other tissues. Each data point represents the mean of 3 animals with error bars representing standard deviation (GraphPad Prism).
(also on this page, place not known: Serum Brain Liver Kidney Heart Spleen Lung 0 500 1000 1500 2000 Tissue h h (ng per g tissue) h 0.5 24 4)
(1 picture or pasted object on this page, not shown here)
The adherent monolayers were washed once with Hank’s buﬀered salt solution (Gibco), then inoculated with 100 µL of analyte and 100 µL of the supplemented MEM used to prepare the dilutions. The plates were rocked at 20 ◦C for 90 min, after which the inoculum was removed and nutrient-supplemented primary overlay (1 mL) was added to each well. The overlay was allowed to solidify at 20 ◦C, before returning the cells to the incubator. After 5 d, nutrient-supplemented, neutral red-containing secondary overlay (1 mL) was added to each well and allowed to solidify at 20 ◦C, then the cells were returned to the incubator.
After 1 d, plaques were observed and counted from the underside of the plate by eye.
5.10 Pharmacokinetics and Biodistribution Study
The study was carried out by Sai Life Science, Ltd. All procedures were in accordance with the guidelines provided by the Committee for the Purpose of Control and Supervisions of Experiments on Animals as published in The Gazette of India, December 15, 1998. Prior approval of the Institutional Animal Ethics Committee was obtained before initiation of the […]
18 healthy male BALB/c mice (8 – 12 weeks old) weighing between 20 and 35 g were procured from ACTREC, Mumbai, India. Illumination was controlled to give a cycle of 12 h light and 12 h dark. Temperature and humidity were recorded by an auto-controlled data logging system and maintained at 22± 3◦C and 55± 15% humidity, respectively. Animals were provided laboratory rodent diet (Vetcare India Pvt. Ltd.) and fresh reverse-osmosis, UV-treated water ad libitum. The mice were randomly divided into two groups. One group was treated with 4 intravenously (IV) at a dose of 2 mg/kg, while the other group was treated with an oral (per os, PO) dose of 10 mg/kg. The dosing volume was 5 mL/kg for IV treatment and 10 mL/kg for PO treatment. Blood samples were collected from three mice from each group under light isoﬂurane anaesthesia before dosing and at 0.25, 0.5, 1, 2, 4, 8 and 24 h after dosing. An additional blood sample was taken for the IV group at 0.08 h after dosing. After collection, potassium tetraethylenediamine was added to the sample as an anticoagulant. Plasma was immediately harvested by centrifugation and then stored at –70 ◦C until analysis. At 0.5, 4, and 24 h after dosing, 3 mice from each group

[3] = BALB/c mice, oral (PO, 10 mg/kg)
[4] = mice, single dose by oral gavage (PO, 10 mg/kg)

Question: What does the source list for `Cc1c(C)c2c(c(C)c1OCCCCCN1CC(O)C(O)C(O)C1CO)CCC(C)(CCCC(C)CCCC(C)CCCC(C)C)O2` (stereo not drawn) [Compound 4, 5′-tocopheroxypentyl-DNJ]?
Answer: anti-DENV effect (infectious virus titer) [1]: neither an anti-DENV nor anti-HCV effect was observed; also recorded: Neither 4 nor 3 showed an anti-; change of amount present in the liver between the 4 and 24 h time points ([2]; BALB/c mice): did not decrease; oral bioavailability ([2]; BALB/c mice): poor oral bioavailability; maximum blood plasma concentration [2, 3]: 46 nM; time of maximum blood plasma concentration [2, 3]: 8 h; tissue in which compound was detected in the highest amounts ([2]; BALB/c mice, oral and intravenous administration): highest amounts in the liver; half-life ([2]; male, mouse, plasma, BALB/c mice (Figure 3B), read-out: plasma terminal half-life (converted)): 8.79 h; concentration in the liver relative to other tissues at 4 and 24 h [2, 4]: higher; tissue levels at 0.5 hours [2, 4]: high levels are achieved in the liver
